Experiment: In vivo toxicity studies in mice (NIH/NIAID preclinical service)
Details: for %Lymphocyte / Hematocrit / WBC / AST / Alb:Glob Ratio / Albumin / Amylase / Bile Acids / Cholesterol / Creatine Kinase / GGT / Globin / Total Protein / Triglyceride / BUN / Ca:Phos Ratio / Calcium / Chloride / Glucose / K / Na / Na:K Ratio / Phosphorus / Uric Acid: Mean; for %Lymphocyte / Hematocrit / WBC: CBC (n=1-2); for AST / Alb:Glob Ratio / Albumin / Amylase / Bile Acids / Cholesterol / Creatine Kinase / GGT / Globin / Total Protein / Triglyceride: LIVER (n=5); for BUN / Ca:Phos Ratio / Calcium / Chloride / Glucose / K / Na / Na:K Ratio / Phosphorus / Uric Acid: RENAL (n=5)
Description: A control group was treated with PBS. […] No signs of distress or significant weight loss were observed during the 4 days of treatment. […]
B. In vivo toxicity studies in mice for bPEI 600 and DAB-Am-4. Experiments were conducted through NIAID/NIH preclinical service agreement No HHSN272201700017I/ […]
Procedures and Endpoints:
1- Baseline weights of all mice
2- IP treatment (twice a day, for 4 days)
3- Daily assessment of weights and condition
4- All animals sacrificed the following morning after the last evening treatment 5- Blood samples collected by IC stick for lab tests (liver, spleen and blood profiles) 6- Internal organs examined for signs of gross tissue toxicity
1. Toxicity evaluation of bPEI 600 Da in mice.
A toxicity screen was performed in uninfected mice treated with 3 doses of bPEI 600 Da, administered for 4 days. In this study, 3 doses of 5, 10 and 25 mg/kg/day were administered twice daily IP for 4 days (n=4/group). A control group was treated with the vehicle (PBS). The mice were examined daily and the weights and general condition were recorded daily. To examine liver, renal and blood function parameters, blood samples were obtained by intracardiac puncture at the end of the study (the following day after last dose) and the mice were sacrificed to examine the internal organs for signs of gross tissue toxicity.
The weights were recorded
In order to confirm the results of the lab results obtained in the toxicity study, a second group of slightly larger mice were treated with the high and the low doses of bPEI 600 Da (25 mg/kg and 5 mg/kg, n=6/group) and the vehicle control (PBS, n=4) for 4 days. Blood samples were collected at the end of the study for liver and renal chemistry profiles. The results are shown in the next […]
REN AL PBS 5 mg/kg 25 mg/kg
LIVER PBS 5 mg/kg 25 mg/kg
Al b:Gl ob R a ti o 1 1 1 […]
obtained from the second group of mice treated with bPEI 600 Da for 4 days.
No signs of distress or significant weight loss were ere observed during the […]
show significant differences with the results obtained in the PBS treated group of control mice.
Statistical analysis: Means were compared by Student’s t test, and mortality was compared by Fisher’s exact test, where applicable.
Ethics regulation of Laboratory animals: Animals were housed in facilities approved by the Association for Assessment and Accreditation of Laboratory Animal Care and Use Committee
2. Toxicity evaluation of DAB-Am-4 in mice.
A toxicity screen in uninfected mice was performed. 2 doses of 5 and 25 mg/kg/day were administered twice daily IP for 4 days (n=6/group). A control group was treated with the vehicle […]
The mice were examined daily and the weights and general condition were recorded. […]

[1] = mice, 25 mg/kg/day twice daily IP, 4 days
[2] = mice, 5 mg/kg/day twice daily IP, 4 days

NCCCN(CCCN)CCCCN(CCCN)CCCN [DAB-Am-4]
weight loss [1]: ~ 10% | weight loss from baseline [1]: 2.0 g | tolerability (mice, 5, 10 and 25 mg/kg/day, twice daily IP, 4 days): tolerated well | signs of acute toxicity (lab tests) (mice, 5 and 25 mg/kg/day DAB-Am-4, 5 mg/kg/day DAB-Am-8): no conclusive signs of acute toxicity | signs of distress during the observation period (mice, low dose 5 mg/kg/day): no significant signs | %Lymphocyte [2]: 67% | Hematocrit [2]: 43 | WBC [2]: 7 | AST [2]: 402 | Alb:Glob Ratio [2]: 1 | Albumin [2]: 3 | Amylase [2]: 792 | Bile Acids [2]: 134 | Cholesterol [2]: 91 | Creatine Kinase [2]: 2340 | GGT [2]: < 1 | Globin [2]: 2 | Total Protein [2]: 5 | Triglyceride [2]: 118 | BUN [2]: 35 | Ca:Phos Ratio [2]: 1 | Calcium [2]: 9 | Chloride [2]: 104 | Glucose [2]: 221 | K [2]: 7 | Na [2]: 143 | Na:K Ratio [2]: 22 | Phosphorus [2]: 11 | Uric Acid [2]: 3 | %Lymphocyte [1]: 61% | Hematocrit [1]: 36 | WBC [1]: 4 | AST [1]: 414 | Alb:Glob Ratio [1]: 1 | Albumin [1]: 3 | Amylase [1]: 760 | Bile Acids [1]: 13 | Cholesterol [1]: 85 | Creatine Kinase [1]: 3089 | GGT [1]: < 1 | Globin [1]: 2 | Total Protein [1]: 5 | Triglyceride [1]: 149 | BUN [1]: 36 | Ca:Phos Ratio [1]: 1 | Calcium [1]: 9 | Chloride [1]: 106 | Glucose [1]: 182 | K [1]: 6 | Na [1]: 147 | Na:K Ratio [1]: 25 | Phosphorus [1]: 9 | Uric Acid [1]: 5
